The values below come from patent US8268814B2, “Substituted sulfonamide compounds” (Gruenenthal GmbH, priority 2008, dated 2012).

Assay [1] deals with T1, human B1R receptor (hB1R) (Homo sapiens, UniProt P46663).
T1 construct: expressed in transfected cells; host or cells: CHO K1 cells (Chinese hamster ovary), stably transfected
T1 sequence (P46663 1-353): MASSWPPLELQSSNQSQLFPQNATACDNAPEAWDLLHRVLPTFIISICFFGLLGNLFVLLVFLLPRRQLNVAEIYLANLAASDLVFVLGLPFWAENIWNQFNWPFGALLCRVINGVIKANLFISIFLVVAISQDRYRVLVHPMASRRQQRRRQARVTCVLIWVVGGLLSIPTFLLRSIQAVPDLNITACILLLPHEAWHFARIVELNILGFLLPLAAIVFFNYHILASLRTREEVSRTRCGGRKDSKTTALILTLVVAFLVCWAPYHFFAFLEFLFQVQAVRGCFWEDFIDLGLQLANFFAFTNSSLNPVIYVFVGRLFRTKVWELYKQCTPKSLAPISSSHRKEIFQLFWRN
Description: Functional FLIPR Ca2+ assay on the bradykinin 1 receptor, human (hB1R CHO K1 cells). Type of assay: cell-based. Conditions: test substance 10 μM; CHO K1 cells transfected with human B1R gene; agonist Lys-Des-Arg9-bradykinin at EC80; % inhibition compared with maximum achievable inhibition; read-out: B1R antagonism, human (10 μM] % inhibition. In outline:
(§1)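 Stably transfected CHO K1 cells expressing human or rat B1R, Fluo-4-loaded, Ca2+ influx read by FLIPR (peak fluorescence). Compounds (10 μM for % activation) preincubated 10-20 min, then EC80 agonist added: Lys-Des-Arg9-bradykinin for human, Des-Arg9-bradykinin for rat; % inhibition versus maximal inhibition, IC50 from concentration series.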

For assay [2], the target named is T2, B1R receptor of the rat (rB1R) (Rattus norvegicus, UniProt P97583).
T2 construct: expressed in transfected cells; host or cells: CHO K1 cells (Chinese hamster ovary), stably transfected
T2 sequence (P97583 1-337): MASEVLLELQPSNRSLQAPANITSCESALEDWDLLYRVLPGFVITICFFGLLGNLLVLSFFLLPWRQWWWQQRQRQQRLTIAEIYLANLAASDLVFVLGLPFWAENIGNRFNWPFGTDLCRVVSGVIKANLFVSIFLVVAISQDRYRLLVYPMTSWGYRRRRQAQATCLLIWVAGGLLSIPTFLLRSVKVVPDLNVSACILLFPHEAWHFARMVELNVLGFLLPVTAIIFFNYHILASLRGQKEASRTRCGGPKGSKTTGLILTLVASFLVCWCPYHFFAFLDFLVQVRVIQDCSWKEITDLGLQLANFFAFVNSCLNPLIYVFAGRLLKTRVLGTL
The experiment in a line: Functional FLIPR Ca2+ assay on the bradykinin 1 receptor, rat (rB1R CHO K1 cells). The format is cell-based. Particulars: test substance 10 μM; CHO K1 cells transfected with rat B1R gene; agonist Des-Arg9-bradykinin at EC80; % inhibition compared with maximum achievable inhibition; read-out: B1R antagonism, rat [10 μM] % inhibition. In outline: as §1

As a reminder, the inhibition is the drop in the measured response relative to a control, in per cent. On to `COc1cc(C)c(S(=O)(=O)N2CCCCC2COCC(=O)N2CCc3onc(CN4CCOCC4)c3C2)c(C)c1` (stereo not shown) [Example 29, 2-((1-(4-methoxy-2,6-dimethylphenylsulfonyl)piperidin-2-yl)methoxy)-1-(3-(morpholinomethyl)-6,7-dihydroisoxazolo[4,5-c]pyridin-5(4H)-yl)ethanone], for which the values for the inhibition at 10 µM in assay [1] and in assay [2] were 99% and 101%, respectively.
The corresponding values for `COc1cc(C)c(S(=O)(=O)N(C)CCOCC(=O)N2CCc3onc(CN4CCOCC4)c3C2)c(C)c1` [Example 30, 4-methoxy-N,2,6-trimethyl-N-(2-(2-(3-(morpholinomethyl)-6,7-dihydroisoxazolo[4,5-c]pyridin-5(4H)-yl)-2-oxoethoxy)ethyl)benzenesulfonamide] are 99% and 104%.
The corresponding values for `COc1cc(C)c(S(=O)(=O)N2CCCCC2COCC(=O)N2CCc3onc(CN(C)C)c3C2)c(C)c1` (stereo not shown) [Example 31, 1-(3-((dimethylamino)methyl)-6,7-dihydroisoxazolo[4,5-c]pyridin-5(4H)-yl)-2-((1-(4-methoxy-2,6-dimethylphenylsulfonyl)piperidin-2-yl)methoxy)ethanone] are 100% and 105%.
Consider `COc1cc(C)c(S(=O)(=O)N(C)CCOCC(=O)N2CCc3onc(CN(C)C)c3C2)c(C)c1` [Example 32, N-(2-(2-(3-((dimethylamino)methyl)-6,7-dihydroisoxazolo[4,5-c]pyridin-5(4H)-yl)-2-oxoethoxy)ethyl)-4-methoxy-N,2,6-trimethylbenzenesulfonamide], for which the inhibition at 10 µM in assay [1] came to 99%; in assay [2], 104%.
With `Cc1cc(S(=O)(=O)N2CCCCC2CCC(=O)N2CCc3sccc3C2c2ccc(Cl)nc2)c(C)cc1Cl` (stereo not shown) [Example 33, 3-(1-(4-chloro-2,5-dimethylphenylsulfonyl)piperidin-2-yl)-1-(4-(6-chloropyridin-3-yl)-6,7-dihydrothieno[3,2-c]pyridin-5(4H)-yl)propan-1-one], the inhibition at 10 µM in assay [1] worked out at 40%; in assay [2] it was 35%.
For `Cc1cc(S(=O)(=O)N2CCCCC2CCC(=O)N2CCc3sccc3C2c2cccc(C(F)(F)F)c2)c(C)cc1Cl` (stereo not shown) [Example 34, 3-(1-(4-chloro-2,5-dimethylphenylsulfonyl)piperidin-2-yl)-1-(4-(3-(trifluoromethyl)phenyl)-6,7-dihydrothieno[3,2-c]pyridin-5(4H)-yl)propan-1-one], the inhibition at 10 µM in assay [1] is 29%; in assay [2], 57%.
As for `Cc1cc(S(=O)(=O)N2CCCCC2CCC(=O)N2CCc3sccc3C2c2cccc(F)c2)c(C)cc1Cl` (stereo not shown) [Example 35, 3-(1-(4-chloro-2,5-dimethylphenylsulfonyl)piperidin-2-yl)-1-(4-(3-fluorophenyl)-6,7-dihydrothieno[3,2-c]pyridin-5(4H)-yl)propan-1-one], the inhibition at 10 µM in assay [1] turned out to be 41%; in assay [2] it was 3%.
`COc1cc(C)c(S(=O)(=O)N2CCCCC2COCC(=O)N2CCc3sccc3C2c2ccncc2)c(C)c1` (stereo not shown) [Example 36, 2-((1-(4-methoxy-2,6-dimethylphenylsulfonyl)piperidin-2-yl)methoxy)-1-(4-(pyridin-4-yl)-6,7-dihydrothieno[3,2-c]pyridin-5(4H)-yl)ethanone]: the inhibition at 10 µM in assay [1] and in assay [2] was 100% each time.
Take `O=C(CC1CCCCN1S(=O)(=O)c1cccc(C(F)(F)F)c1)N1CCc2nc(-c3ccncc3)sc2C1` (stereo not shown) [Example 37, 1-(2-(pyridin-4-yl)-6,7-dihydrothiazolo[5,4-c]pyridin-5(4H)-yl)-2-(1-(3-(trifluoromethyl)phenylsulfonyl)piperidin-2-yl)ethan-1-one]: the inhibition at 10 µM in assay [1] was 28%; in assay [2], 97%.
In the same order, the values of `COc1cc(C)c(S(=O)(=O)N2CCCCC2COCC(=O)N2CCc3nc(Cc4ccncc4)sc3C2)c(C)c1` (stereo not shown) [Example 38, 2-((1-(4-methoxy-2,6-dimethylphenylsulfonyl)piperidin-2-yl)methoxy)-1-(2-(pyridin-4-ylmethyl)-6,7-dihydrothiazolo[5,4-c]pyridin-5(4H)-yl)ethan-1-one] are 99% and 97%.
In the same order, the values of `COc1cc(C)c(S(=O)(=O)N(C)CCOCC(=O)N2CCc3nc(Cc4ccncc4)sc3C2)c(C)c1` [Example 39, 4-methoxy-N,2,6-trimethyl-N-(2-(2-oxo-2-(2-(pyridin-4-ylmethyl)-6,7-dihydrothiazolo[5,4-c]pyridin-5(4H)-yl)ethoxy)ethyl)benzenesulfonamide] are 100% and 99%.
The corresponding values for `O=C(CC1CCCCN1S(=O)(=O)c1cccc(C(F)(F)F)c1)N1CCc2nc(Cc3ccncc3)sc2C1` (stereo not shown) [Example 40, 1-(2-(pyridin-4-ylmethyl)-6,7-dihydrothiazolo[5,4-c]pyridin-5(4H)-yl)-2-(1-(3-(trifluoromethyl)phenylsulfonyl)piperidin-2-yl)ethan-1-one] are 51% and 90%.
In the case of `COc1cc(C)c(S(=O)(=O)N2CCCCC2CCC(=O)N2CCc3nc(Cc4ccncc4)sc3C2)c(C)c1` (stereo not shown) [Example 41, 3-(1-(4-methoxy-2,6-dimethylphenylsulfonyl)piperidin-2-yl)-1-(2-(pyridin-4-ylmethyl)-6,7-dihydrothiazolo[5,4-c]pyridin-5(4H)-yl)propan-1-one], the inhibition at 10 µM is 64% in assay [1] and 99% in assay [2].
`COc1cc(C)c(S(=O)(=O)N2CCCCC2CCCC(=O)N2CCc3nc(Cc4ccncc4)sc3C2)c(C)c1` (stereo not shown) [Example 43, 4-(1-(4-methoxy-2,6-dimethylphenylsulfonyl)piperidin-2-yl)-1-(2-(pyridin-4-ylmethyl)-6,7-dihydrothiazolo[5,4-c]pyridin-5(4H)-yl)butan-1-one]: the inhibition at 10 µM in assay [1] and in assay [2] was 99% each time.
As for `CN1CCN(Cc2cc3c(s2)CCN(C(=O)CC2CCCCN2S(=O)(=O)c2cccc(C(F)(F)F)c2)C3)CC1` (stereo not shown) [Example 44, 1-(2-((4-methylpiperazin-1-yl)methyl)-6,7-dihydrothieno[3,2-c]pyridin-5(4H)-yl)-2-(1-(3-(trifluoromethyl)phenylsulfonyl)piperidin-2-yl)ethan-1-one], the inhibition at 10 µM was 83% in assay [1] and 59% in assay [2].
Regarding `COc1cc(C)c(S(=O)(=O)N2CCCCC2CCC(=O)N2CCc3sc(CN4CCN(C)CC4)cc3C2)c(C)c1` (stereo not shown) [Example 45, 3-(1-(4-methoxy-2,6-dimethylphenylsulfonyl)piperidin-2-yl)-1-(2-((4-methylpiperazin-1-yl)methyl)-6,7-dihydrothieno[3,2-c]pyridin-5(4H)-yl)propan-1-one], the inhibition at 10 µM in assay [1] worked out at 98%; in assay [2], 99%.
The corresponding values for `COc1cc(C)c(S(=O)(=O)N2CCCCC2CCCC(=O)N2CCc3sc(CN4CCN(C)CC4)cc3C2)c(C)c1` (stereo not shown) [Example 47, 4-(1-(4-methoxy-2,6-dimethylphenylsulfonyl)piperidin-2-yl)-1-(2-((4-methylpiperazin-1-yl)methyl)-6,7-dihydrothieno[3,2-c]pyridin-5(4H)-yl)butan-1-one] are 100% and 101%.
